This passage reports IC50 results from patent US5032588A, “Thiazole lipoxygenase-inhibiting compounds derived from non-steroidal antiinflammatory carboxylic acids” (Abbott Laboratories, priority 1989, dated 1991).

The experiment deals with T1, 5-lipoxygenase (Rattus norvegicus, UniProt P12527).
T1 construct: 20,000x g supernatant from homogenized RBL-1 cells; endogenous in cells; host or cells: RBL-1 cells (20,000 x g supernatant of homogenate)
T1 sequence (P12527 1-673): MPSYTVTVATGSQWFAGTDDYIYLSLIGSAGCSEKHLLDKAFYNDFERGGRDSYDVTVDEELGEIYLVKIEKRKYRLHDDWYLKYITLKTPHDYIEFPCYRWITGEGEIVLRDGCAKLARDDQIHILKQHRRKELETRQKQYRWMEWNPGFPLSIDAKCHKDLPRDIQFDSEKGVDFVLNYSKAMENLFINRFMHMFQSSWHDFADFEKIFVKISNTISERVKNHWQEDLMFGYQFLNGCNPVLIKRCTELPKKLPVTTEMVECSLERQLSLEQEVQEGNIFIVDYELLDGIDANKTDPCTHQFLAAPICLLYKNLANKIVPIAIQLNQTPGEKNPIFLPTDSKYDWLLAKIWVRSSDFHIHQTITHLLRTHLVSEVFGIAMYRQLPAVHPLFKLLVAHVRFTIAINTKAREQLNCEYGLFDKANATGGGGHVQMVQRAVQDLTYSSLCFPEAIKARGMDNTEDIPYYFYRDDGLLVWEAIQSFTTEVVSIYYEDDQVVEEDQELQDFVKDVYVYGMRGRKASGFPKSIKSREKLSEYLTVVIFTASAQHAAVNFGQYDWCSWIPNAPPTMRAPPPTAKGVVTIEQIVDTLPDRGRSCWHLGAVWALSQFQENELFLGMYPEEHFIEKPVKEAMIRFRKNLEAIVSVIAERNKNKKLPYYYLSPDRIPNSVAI
Put plainly: Inhibition of 5-lipoxygenase activity (20,000x g supernatant from homogenized RBL-1 cells). Format: biochemical. The note with it: linear regression of percentage inhibition versus log inhibitor concentration, read-out: IC50 (concentration of compound producing 50% enzyme inhibition). On the procedure: Inhibition of 5-lipoxygenase activity was determined using the 20,000x g supernatant from homogenized RBL-1 cells in a similar manner as that described by Dyer and coworkers (Dyer, R. D.; Haviv, F.; Hanel, A. M.; Bornemier, D. A.; Carter, G. W. Fed. Proc., Fed. Am. Soc. Exp. Biol., 43:1462A, (1984).) IC50 values (concentration of compound producing 50% enzyme inhibition) were calculated by linear regression analysis of percentage inhibition versus log inhibitor concentration plots.
For `COc1ccc2cc(C(C)c3nc(O)c(-c4ccccc4)s3)ccc2c1` (centres unmarked) [Example 1, 2-[1-(6-methoxy-2-naphthyl)ethyl]-5-phenyl-4-hydroxythiazole], the IC50 worked out at 420 nM.
`CC(C)Cc1ccc(C(C)c2nc(O)c(-c3ccccc3)s2)cc1` (centres unmarked) [Example 2, 2-[1-(4-isobutylphenyl)ethyl]-5-phenyl-4-hydroxy-thiazole]: the IC50 came to 710 nM.
With `CC(C)Cc1ccc(Cc2nc(O)c(-c3ccccc3)s2)cc1` [Example 3, 2-[(4-isobutylphenyl)methyl]-5-phenyl-4-hydroxythiazole], the IC50 amounted to 1100 nM.
Take `CCC(c1ccc(CC(C)C)cc1)c1nc(O)c(-c2ccccc2)s1` (centres unmarked) [Example 4, 2-[1-(4-isobutylphenyl)propyl]-5-phenyl-4-hydroxythiazole]: the IC50 is 60 nM.
With `COc1ccc2cc(C(C)c3sc(-c4ccccc4)nc3O)ccc2c1` (centres unmarked) [Example 5, 5-[1-(6-methoxy-2-naphthyl)ethyl]-2-phenyl-4-hydroxythiazole], the IC50 was determined as 900 nM.
